Paper PMC5021139 (Journal of Neuroendocrinology, 2016)
*1 amine or outer side, *2 acyl side, *3 side chain or, on linkers, in order; H or OH if unused. Where a SMILES comes first, the peptide text is derived from it. Bridges are numbered along the chain shown (N, C = ends). Where no end group is shown, it is not given here. X1 = O=C(CCC[*:2])[*:1]

Assays:
[1] = cited from earlier work
[2] = tested on: aminopeptidase and disulphidase; details: cited from earlier work
[3] = molecular target: T1, human oxytocin receptor (hOXTR) (Homo sapiens, UniProt P30559); details: carbetocin vs oxytocin
[4] = molecular target: T1, human oxytocin receptor (hOXTR); test: cell-based; details: HEK293, read-out: maximal activation (BRETmax) relative to oxytocin
[5] = parameters: method as in PMID 6831225; details: parenteral administration; cited from earlier work
[6] = parameters: method as in PMID 6831225; details: cited from earlier work
[7] = tested on: human vasopressin V1a receptor (V1aR); test: BRET2 G-protein activation at V1aR in HEK293 cells; type: cell-based; details: 10 μM ligand, 2 min, Gq, Gi1, Gi2, Gi3, Go, minimum of three experiments
Description: (A) V1aR or (B) V1bR were transfected together with GFP10‐Gγ2, Gβ1 and different Rluc8‐tagged Gα subunits: Gq, Gi1, Gi2, Gi3, Go.

[8] = tested on: human vasopressin V1b receptor (V1bR); test: BRET2 G-protein activation at V1bR in HEK293 cells; details: 10 μM ligand, 2 min, Gq, Gi1, Gi2, Gi3, Go, minimum of three experiments
OXTR = details: cited from earlier work
[9] = molecular target: T1, human oxytocin receptor (hOXTR)
[10] = tested on: somatostatin receptor (SST2R); parameters: method as in PMID 25012983; details: functioning gastroenteropancreatic neuroendocrine tumours; cited from earlier work
[11] = molecular target: T2, human oxytocin receptor fused to Renilla luciferase (hOXTR‐Rluc) (human, UniProt P30559 1-389); test: FRET or BRET; kinetic BRET1 in HEK293 cells co-transfected with hOXTR-Rluc (donor) and β-arrestin1- or β-arrestin2-Venus (acceptor); cells in PBS with 0.1% glucose at room temperature; coelenterazine h added 8 min before oxytocin (10 μM); read in real time for 5 min; details: partners not purified
T2 construct: oxytocin receptor, human; Rluc introduced at the C-terminus; source: HEK293, transfected (PEI), in living cells; not shown: Rluc (Renilla luciferase), C-terminal, kept
T2 sequence (looked up): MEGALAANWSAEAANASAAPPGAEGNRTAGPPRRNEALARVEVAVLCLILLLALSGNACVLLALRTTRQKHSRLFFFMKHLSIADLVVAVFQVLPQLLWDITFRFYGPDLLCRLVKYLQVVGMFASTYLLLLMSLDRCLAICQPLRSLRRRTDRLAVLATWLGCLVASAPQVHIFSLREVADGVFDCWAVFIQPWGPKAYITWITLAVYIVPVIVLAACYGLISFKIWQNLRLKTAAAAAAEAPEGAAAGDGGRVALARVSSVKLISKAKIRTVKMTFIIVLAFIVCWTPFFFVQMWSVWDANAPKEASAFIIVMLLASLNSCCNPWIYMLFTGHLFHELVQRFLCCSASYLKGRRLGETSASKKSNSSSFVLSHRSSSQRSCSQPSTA

For `CC[C@H](C)[C@@H]1NC(=O)[C@H](Cc2ccc(OC)cc2)NC(=O)CCCSC[C@@H](C(=O)N2CCC[C@H]2C(=O)N[C@@H](CC(C)C)C(=O)NCC(N)=O)NC(=O)[C@H](CC(N)=O)NC(=O)[C@H](CCC(N)=O)NC1=O` [carbetocin, deamino‐1‐monocarba‐(2‐O‐methyltyrosine)‐oxytocin] (Y(Me)IQNCPLG-NH2; linker N-5 via X1), the “half-life in the peripheral circulation” value [1] is given as 85 to 100 min, the “protection from aminopeptidase degradation and disulphidase cleavage” value [2] is given as “very effective protection of carbetocin from aminopeptidase degradation and disulphidase cleavage” and the “reduction in maximal OXTR/Gq activation compared to oxytocin” value [3] is given as 50%. For the same molecule, the Emax [4] was 45 ± 6%.

In the case of `CC[C@H](C)[C@@H]1NC(=O)[C@H](Cc2ccc(O)cc2)NC(=O)[C@@H](N)CSSC[C@@H](C(=O)N2CCC[C@H]2C(=O)N[C@@H](CC(C)C)C(=O)NCC(N)=O)NC(=O)[C@H](CC(N)=O)NC(=O)[C@H](CCC(N)=O)NC1=O` [oxytocin], the blood-brain barrier crossing [5] is listed as “does not cross the blood–brain barrier in a significant amount”, the “half-life in the peripheral circulation” value [1] is listed as 3.4 min and the “half-life in the plasma” value [1] is listed as “short half‐life in the plasma”. For the same molecule, the “half-life in the cerebrospinal fluid” value [6] was “short half‐life”.

With “arginine vasopressin: neuropeptide arginine vasopressin, obtained from Bachem (CYFQNCPRG; not fully specified (C-terminus, bridges); cysteine pairing not given here; UniProt P01185 20-28, looked up)” the “V1aR activation, all G-proteins tested” value [7] was “significantly promoted the coupling/activation” and the “V1bR activation, all G-proteins tested” value [8] was “significantly promoted the coupling/activation”.

For atosiban, the G-protein functional selectivity (OXTR) is given as “a Gi3 functional selective agonists”.

In the case of “carbetocin (deamino‐1‐monocarba‐(2‐O‐methyltyrosine)‐oxytocin) (peptide)”, the EC50 of Gq activation (BRET2 between Gαq-Rluc8 and GFP10-Gγ2) in HEK293 cells expressing hOXTR, 10^-13 to 10^-5 M, 2 min [9] is reported as 48.8 nM and the maximal activation (BRETmax) of the Gq biosensor in HEK293 cells expressing hOXTR, against that of oxytocin (% of oxytocin) [9] is reported as 45.

In the case of octreotide, the “antisecretory potency on long-term treatment” value [10] is listed as “antisecretory potency decreased with long‐term treatment as a consequence of the persistent internalisation of SST2R”.

B1: β‐arrestin1‐Venus (natural protein, UniProt P49407 1-418, looked up)
chain: MGDKGTRVFKKASPNGKLTVYLGKRDFVDHIDLVDPVDGVVLVDPEYLKERRVYVTLTCAFRYGREDLDVLGLTFRKDLFVANVQSFPPAPEDKKPLTRLQERLIKKLGEHAYPFTFEIPPNLPCSVTLQPGPEDTGKACGVDYEVKAFCAENLEEKIHKRNSVRLVIRKVQYAPERPGPQPTAETTRQFLMSDKPLHLEASLDKEIYYHGEPISVNVHVTNNTNKTVKKIKISVRQYADICLFNTAQYKCPVAMEEADDTVAPSSTFCKVYTLTPFLANNREKRGLALDGKLKHEDTNLASSTLLREGANREILGIIVSYKVKVKLVVSRGGLLGDLASSDVAVELPFTLMHPKPKEEPPHREVPENETPVDTNLIELDTNDDDIVFEDFARQRLKGMKDDKEEEEDGTGSPQLNNR
notes: β-arrestin1; Venus (yellow variant of GFP) fused to its C-terminus; vector provided by Professor M. Locati; source: HEK293, transfected (PEI), in living cells; not shown: Venus, C-terminal, kept
In the case of B1, the “t1/2 of the oxytocin-induced increase of the BRET ratio” value [11] is reported as 1.98 min.
